The numbers were not newly measured in patent US20030157061A1, “Combinations of a cyclooxygenase-2 selective inhibitor and a TNFalpha antagonist and therapeutic uses therefor” (Pharmacia Corporation, priority 2001, published 2003), which cites them from elsewhere.

The series deals with fibroblast growth factor-induced corneal angiogenesis. To be noted: rats.

The structures appear in SMILES notation.

For the compound `Cc1ccc(-c2cc(C(F)(F)F)nn2-c2ccc(S(N)(=O)=O)cc2)cc1` [Celecoxib, 4-[5-(4-methylphenyl)-3-(trifluoromethyl)-1H-pyrazol-1-yl]benzenesulfonamide], the “inhibition of fibroblast growth factor-induced corneal angiogenesis” value is “potent inhibition”.
